Laboratory results: patent US20230416227A1, “PLASMA KALLIKREIN INHIBITORS” (Merck Sharp & Dohme LLC, priority 2020, published 2023)

biological target: T1, Human plasma kallikrein (Homo sapiens, UniProt P03952); experiment: Plasma Kallikrein Assay; format: biochemical; conditions: purified Human plasma kallikrein 0.5 nM, substrate Acetyl-K-P-R-AFC, pH 7.4
T1 construct: yields a heavy chain (371 amino acids) and a light chain (248 amino acids); purchased Enzyme Research Laboratories
Procedure: The effectiveness of a compound of the present invention as an inhibitor of plasma kallikrein can be determined using a relevant purified serine protease, and an appropriate synthetic substrate. The rate of hydrolysis of the chromogenic or fluorogenic substrate by the relevant serine protease was measured both in the absence and presence of compounds of the present invention. Assays were conducted at rt or at 37° C. […] A decrease in the rate of fluorescence change in the presence of inhibitor is indicative of enzyme inhibition. Such methods are known to one skilled in the art. The results of this assay are expressed as the half-maximal inhibitory concentrations (IC50), or the inhibitory constant, Ki.
Plasma kallikrein determinations were made in 50 mM HEPES buffer at pH 7.4 containing 150 mM NaCl, 5 mM CaCl2), and 0.1% PEG 8000 (polyethylene glycol; Fisher Scientific). […]
Times required to achieve equilibration between enzyme and inhibitor were determined in control experiments. The reactions were performed under linear progress curve conditions and fluorescence increase measured at 405 Ex/510 Em nm. […] IC50 was determined by inflection point from a four parameter logistic curve fit. Ki was calculated using the Cheng Prusoff equation, Ki=IC50/(1+([S]/Km)).

T1 sequence (P03952 391-638 limits assumed): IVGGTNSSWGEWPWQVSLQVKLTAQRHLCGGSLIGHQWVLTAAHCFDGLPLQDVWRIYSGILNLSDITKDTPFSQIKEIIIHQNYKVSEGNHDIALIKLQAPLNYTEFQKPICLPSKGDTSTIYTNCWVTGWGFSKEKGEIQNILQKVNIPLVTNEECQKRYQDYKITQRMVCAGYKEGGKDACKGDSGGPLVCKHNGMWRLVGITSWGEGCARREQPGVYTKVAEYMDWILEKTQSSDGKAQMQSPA
T1 sequence (P03952 20-390 partner limits assumed): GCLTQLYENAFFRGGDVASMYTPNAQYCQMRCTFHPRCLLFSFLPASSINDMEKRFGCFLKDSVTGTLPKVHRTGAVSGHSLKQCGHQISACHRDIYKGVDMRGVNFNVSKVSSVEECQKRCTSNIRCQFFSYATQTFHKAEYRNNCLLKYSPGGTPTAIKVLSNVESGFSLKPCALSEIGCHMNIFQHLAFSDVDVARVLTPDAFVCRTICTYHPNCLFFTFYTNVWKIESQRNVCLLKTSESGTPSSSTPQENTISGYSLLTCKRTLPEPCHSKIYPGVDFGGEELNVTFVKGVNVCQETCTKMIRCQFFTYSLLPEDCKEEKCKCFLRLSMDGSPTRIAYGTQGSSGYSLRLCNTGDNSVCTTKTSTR

| SMILES | IC50 [nM] |
| --- | --- |
| O=C(Nc1cnn(Cc2cnc(N3CCCC3Cn3ccnc3)nc2)c1)c1cncc(-c2c(C(F)F)ccc(Cl)c2F)n1 (stereo not shown) [Example 109, N-(1-((2-(2-((1H-Imidazol-1-yl)methyl)pyrrolidin-1-yl)pyrimidin-5-yl)methyl)-1H-pyrazol-4-yl)-6-(3-chloro-6-(difluoromethyl)-2-fluorophenyl)pyrazine-2-carboxamide] | 45.9 |
| CC(C)(O)CC1CCCN1c1ncc(Cn2cc(NC(=O)c3cncc(-c4c(C(F)F)ccc(Cl)c4F)n3)cn2)cn1 (single isomer, unassigned) [Example 110, (S or R)-6-(3-Chloro-6-(difluoromethyl)-2-fluorophenyl)-N-(1-((2-(2-(2-hydroxy-2-methylpropyl)pyrrolidin-1-yl)pyrimidin-5-yl)methyl)-1H-pyrazol-4-yl)pyrazine-2-carboxamide] | 46.2 |
| O=C(Nc1cnn(Cc2ccc(N3CC4CCC(C3)N4)nc2)c1)c1cncc(-c2c(C(F)F)ccc(Cl)c2F)n1 [Example 204, N-(1-((6-(3,8-Diazabicyclo[3.2.1]octan-3-yl)pyridin-3-yl)methyl)-1H-pyrazol-4-yl)-6-(3-chloro-6-(difluoromethyl)-2-fluorophenvl)pyrazine-2-carboxamide] | 17.5 |
| CC(=O)N1CC[C@@H]2CN(c3ccc(Cn4cc(NC(=O)c5cncc(-c6c(C(F)F)ccc(Cl)c6F)n5)cn4)cn3)[C@@H]2C1 [Example 133, N-(1-((6-((1S,6R)-3-Acetyl-3,8-diazabicyclo[4.2.0]octan-8-yl)pyridin-3-yl)methyl)-1H-pyrazol-4-yl)-6-(3-chloro-6-(difluoromethyl)-2-fluorophenyl)pyrazine-2-carboxamide] | 49.5 |
| CN(CCO)c1ccc(Cn2cc(NC(=O)c3cncc(-c4c(C(F)F)ccc(Cl)c4F)n3)cn2)cn1 [Example 121, 6-(3-Chloro-6-(difluoromethyl)-2-fluorophenyl)-N-(1-((6-((2-hydroxyethyl)(methyl)amino)pyridin-3-yl)methyl)-1H-pyrazol-4-yl)pyrazine-2-carboxamide] | 18.4 |
| O=C(Nc1cnn(Cc2cnc(N3CCC4OCCC43)nc2)c1)c1cncc(-c2c(C(F)F)ccc(Cl)c2F)n1 (single isomer, unassigned) [Example 103, 6-(3-Chloro-6-(difluoromethyl)-2-fluorophenyl)-N-(1-((2-((3aS,6aS or 3aR,6aR)-hexahydro-4H-furo[3,2-b]pyrrol-4-yl)pyrimidin-5-yl)methyl)-1H-pyrazol-4-yl)pyrazine-2-carboxamide] | 31.3 |
| CC(c1cnc(N2C[C@H]3C[C@H]3C2C(=O)N(C)C)nc1)n1cc(NC(=O)c2cncc(-c3c(C(F)F)ccc(Cl)c3F)n2)cn1 (single isomer, unassigned) [Example 201, (1R,2S,5S or 1S,2R,5R)-3-(5-((S or R)-1-(4-(6-(3-Chloro-6-(difluoromethyl)-2-fluorophenyl)pyrazine-2-carboxamido)-1H-pyrazol-1-yl)ethyl)pyrimidin-2-yl)-N,N-dimethyl-3-azabicyclo[3.1.0]hexane-2-carboxamide] | 6.2 |
| CC(c1cnc(N2CC3CC3C2C#N)nc1)n1cc(NC(=O)c2cncc(-c3c(C(F)F)ccc(Cl)c3F)n2)cn1 (single isomer, unassigned) [Example 198] | 189 |
| CC(c1cnc(N2C[C@H]3C[C@H]3C2C(=O)N(C)C)nc1)n1cc(NC(=O)c2cncc(-c3c(C(F)F)ccc(Cl)c3F)n2)cn1 (single isomer, unassigned) [Example 203, (1R,2S,5S or 1S,2R,5R)-3-(5-((S or R)-1-(4-(6-(3-Chloro-6-(difluoromethyl)-2-fluorophenyl)pyrazine-2-carboxamido)-1H-pyrazol-1-yl)ethyl)pyrimidin-2-yl)-N,N-dimethyl-3-azabicyclo[3.1.0]hexane-2-carboxamide] | 77.8 |
| Nc1ncc(-c2c(C(F)F)ccc(Cl)c2F)nc1C(=O)Nc1cnn(Cc2cnc(N3CCC3)nc2)c1 [Example 3, 3-Amino-N-(1-((2-(azetidin-1-yl)pyrimidin-5-yl)methyl)-1H-pyrazol-4-yl)-6-(3-chloro-6-(difluoromethyl)-2-fluorophenyl)pyrazine-2-carboxamide] | 40.5 |
| CCC(=O)C1C2CC2CN1c1ncc(Cn2cc(NC(=O)c3cncc(-c4c(C(F)F)ccc(Cl)c4F)n3)cn2)cn1 (stereo not shown) [Example 91, 6-(3-Chloro-6-(difluoromethyl)-2-fluorophenyl)-N-(1-((2-(2-propionyl-3-azabicyclo[3.1.0]hexan-3-yl)pyrimidin-5-yl)methyl)-1H-pyrazol-4-yl)pyrazine-2-carboxamide] | 17.9 |
| O=C(Nc1cnn(Cc2ccc(N3CCC4OCCC43)nc2)c1)c1cncc(-c2c(C(F)F)ccc(Cl)c2F)n1 (stereo not shown) [Example 117, 6-(3-Chloro-6-(difluoromethyl)-2-fluorophenyl)-N-(1-((6-(hexahydro-4H-furo[3,2-b]pyrrol-4-yl)pyridin-3-yl)methyl)-1H-pyrazol-4-yl)pyrazine-2-carboxamide] | 5.4 |
| NC(=O)C1CCCN(c2ccc(Cn3cc(NC(=O)c4cncc(-c5c(C(F)F)ccc(Cl)c5F)n4)cn3)cn2)C1 (stereo not shown) [Example 129, N-(1-((6-(3-Carbamoylpiperidin-1-yl)pyridin-3-yl)methyl)-1H-pyrazol-4-yl)-6-(3-chloro-6-(difluoromethyl)-2-fluorophenyl)pyrazine-2-carboxamide] | 32.8 |
| CN(C)CCN(CCO)c1ncc(Cn2cc(NC(=O)c3cncc(-c4c(C(F)F)ccc(Cl)c4F)n3)cn2)cn1 [Example 88, 6-(3-Chloro-6-(difluoromethyl)-2-fluorophenyl)-N-(1-((2-((2-(dimethylamino)ethyl)(2-hydroxyethyl)amino)pyrimidin-5-yl)methyl)-1H-pyrazol-4-yl)pyrazine-2-carboxamide] | 14.9 |
| CC(c1cnc(N2Cc3ccncc3C2)nc1)n1cc(NC(=O)c2cncc(-c3c(C(F)F)ccc(Cl)c3F)n2)cn1 (stereo not shown) [Example 89, 6-(3-Chloro-6-(difluoromethyl)-2-fluorophenyl)-N-(1-(1-(2-(1,3-dihydro-2H-pyrrolo[3,4-c]pyridin-2-yl)pyrimidin-5-yl)ethyl)-1H-pyrazol-4-yl)pyrazine-2-carboxamide] | 17.3 |

These reach a lower IC50. Values come first.

| IC50 [nM] | SMILES |
| --- | --- |
| 4.7 | C[C@H](c1cnc(N2C[C@H]3C[C@H]3[C@H]2C#N)nc1)n1cc(NC(=O)c2cncc(-c3c(C(F)F)ccc(Cl)c3F)n2)cn1 (single isomer, unassigned) [Example 196] |
| 4.2 | CC(c1cnc(N2CC[C@H]2CN[C@@H]2CCC[C@H]2O)nc1)n1cc(NC(=O)c2cncc(-c3c(C(F)F)ccc(Cl)c3F)n2)cn1 (stereo partly drawn) [Example 181, 6-(3-Chloro-6-(difluoromethyl)-2-fluorophenyl)-N-(1-(1-(2-((S)-2-((((1R,2R)-2-hydroxycyclopentyl)amino)methyl)azetidin-1-yl)pyrimidin-5-yl)ethyl)-1H-pyrazol-4-yl)pyrazine-2-carboxamide] |
| 4.1 | CC(c1cnc(N2CC[C@H]2[C@@H](C)NCC2(O)CC2)nc1)n1cc(NC(=O)c2cncc(-c3c(C(F)F)ccc(Cl)c3F)n2)cn1 (stereo partly drawn) [Example 192, 6-(3-Chloro-6-(difluoromethyl)-2-fluorophenyl)-N-(1-(1-(2-((S)-2-((R)-1-(((1-hydroxycyclopropyl)methyl)amino)ethyl)azetidin-1-yl)pyrimidin-5-yl)ethyl)-1H-pyrazol-4-yl)pyrazine-2-carboxamide] |
| 3.4 | CC(c1cnc(N2CC[C@H]2CN2C[C@H](O)C[C@H]2C)nc1)n1cc(NC(=O)c2cncc(-c3c(C(F)F)ccc(Cl)c3F)n2)cn1 (stereo partly drawn) [Example 164, 6-(3-Chloro-6-(difluoromethyl)-2-fluorophenyl)-N-(1-(1-(2-((S)-2-(((2R,4R)-4-hydroxy-2-methylpyrrolidin-1-yl)methyl)azetidin-1-yl)pyrimidin-5-yl)ethyl)-1H-pyrazol-4-yl)pyrazine-2-carboxamide] |
| 2.5 | CC(c1cnc(N(C)CC(=O)N(C)C)nc1)n1cc(NC(=O)c2cncc(-c3c(C(F)F)ccc(Cl)c3F)n2)cn1 (stereo not shown) [Example 72, 6-(3-Chloro-6-(difluoromethyl)-2-fluorophenyl)-N-(1-(1-(2-((2-(dimethylamino)-2-oxoethyl)(methyl)amino)pyrimidin-5-yl)ethyl)-1H-pyrazol-4-yl)pyrazine-2-carboxamide] |
| 1.2 | CC(c1cnc(N2CC[C@H]2[C@@H](C)N2C[C@@H](O)[C@H](F)C2)nc1)n1cc(NC(=O)c2cncc(-c3c(C(F)F)ccc(Cl)c3F)n2)cn1 (stereo partly drawn) [Example 189, 6-(3-Chloro-6-(difluoromethyl)-2-fluorophenyl)-N-(1-(1-(2-((S)-2-((R)-1-((3R,4R)-3-fluoro-4-hydroxypyrrolidin-1-yl)ethyl)azetidin-1-yl)pyrimidin-5-yl)ethyl)-1H-pyrazol-4-yl)pyrazine-2-carboxamide] |
| 1.1 | CC(c1cnc(N2CC[C@H]2[C@@H](C)N2CC(C(C)(C)O)C2)nc1)n1cc(NC(=O)c2cncc(-c3c(C(F)F)ccc(Cl)c3F)n2)cn1 (stereo partly drawn) [Example 191, 6-(3-Chloro-6-(difluoromethyl)-2-fluorophenyl)-N-(1-(1-(2-((S)-2-((R)-1-(3-(2-hydroxypropan-2-yl)azetidin-1-yl)ethyl)azetidin-1-yl)pyrimidin-5-yl)ethyl)-1H-pyrazol-4-yl)pyrazine-2-carboxamide] |
